Reference: paper PMC7018657, “Molecular Determinants of Substrate Selectivity of a Pneumococcal Rgg-Regulated Peptidase-Containing ABC Transporter” (mBio, 2020)

Columns and labels:
Assay type in all cases: cell-based, Streptococcus pneumoniae R6
Details in all cases: signal sequence (wild type or mutated) fused to BlpI-HiBiT cargo peptide; R6; CDM+; CSP, BlpC and RtgSA-C10 treatment; 3 independent experiments
ComAB = assay: HiBiT peptide secretion assay, ComAB+ strain
Experimental: (§1) FIG 5 RtgAB secretes different GG peptides from ComAB and BlpAB. R6 ComAB^−/BlpAB^−/RtgAB^− and single-transporter-positive ComAB^+, BlpAB^+, and RtgAB^+ strains expressing RtgC-HiBiT (A), RtgG-HiBiT (B), or BlpI-HiBiT (C) were grown in CDM+ to an OD620 of 0.05 and treated with 200 ng/ml CSP, 200 ng/ml BlpC, and 20 nM RtgSA-C10. Samples were taken every 30 min, and extracellular HiBiT signal was quantified. Data are presented as fold change values relative to the ComAB^−/BlpAB^−/RtgAB^− control. Red dashed lines represent fold change = 1 (no difference versus the control). Plots show means ± SEs from 3 independent experiments.
(§2) Cells were inoculated from starter cultures to an OD620 of 0.005 and grown in CDM+. […] Samples were taken for HiBiT quantification at appropriate time points. […] HiBiT signal was quantified by mixing samples with HiBiT extracellular detection reagent (N2421; Promega) at a 1:1 ratio and reading luminescence with a Synergy HTX plate reader. Samples were also taken for quantification of intracellular peptide; for endpoint assays, they were taken concurrently with the extracellular samples, and for time course assays, they were taken at the last time point. Extracellular peptide was removed from these samples by proteinase K digestion, and then the cells were lysed and HiBiT signal was quantified as described above. […]
(§3) and read 5 min following reagent addition. […]

RtgAB = assay: HiBiT peptide secretion assay, RtgAB+ strain
Experimental: FIG 3 RtgAB secretes RtgC and RtgG. R6 ComAB^−/BlpAB^−/RtgAB^− and ComAB^−/BlpAB^−/RtgAB^+ strains expressing RtgC-HiBiT (A) or RtgG-HiBiT (B) were grown in CDM+ to an OD620 of 0.05 and treated with 200 ng/ml CSP, 200 ng/ml BlpC, and 20 nM RtgSA-C10. CSP and BlpC were added to allow for comparison with ComAB^+ and BlpAB^+ strains in later experiments. Samples were taken every 30 min, and extracellular HiBiT signal was quantified. Data are presented as fold change values relative to the ComAB^−/BlpAB^−/RtgAB^− control. Red dashed lines represent fold change = 1 (no difference versus the control). […]
FIG 5 RtgAB secretes different GG peptides from ComAB and BlpAB. […] Samples were taken every 30 min, and extracellular HiBiT signal was quantified. […]
as §2, with “point.” for “point. Extracellular peptide was removed from these samples by proteinase K digestion, and then the cells were lysed and HiBiT signal was quantified as described above.”
as §3

BlpAB = assay: HiBiT peptide secretion assay, BlpAB+ strain
Experimental: as §1, §2, §3

MELILPNNYVDLEQEEMMYLDGG [SSRtgG]
secretion through ComAB, BlpI cargo peptide (ComAB): preventing its secretion through ComAB and BlpAB
secretion through RtgAB, BlpI cargo peptide (RtgAB): promotes secretion of the BlpI cargo peptide through RtgAB
secretion through BlpAB, BlpI cargo peptide (BlpAB): preventing its secretion through ComAB and BlpAB
